6 compounds from patent publication EP0911328B1, “SUBSTITUTED AMINOCYCLOALKYLPYRROLIDINE DERIVATIVES” (DAIICHI PHARMACEUTICAL CO., LTD., priority 1995, dated 1997) can be followed below.

What all share (assay): Antibacterial activity (MIC), standard method of Japan Society of Chemotherapy
Holding throughout (assay type): cell-based

Assay [1] deals with Pr. mirabilis, IFO-3849. To be noted: Proteus mirabilis, IFO3849, strain Pr. mirabilis, read-out: minimum inhibitory concentration (MIC). The procedure:
(§1) Examples of the present invention are given below by way of illustration and not by way of limitation. In this connection, antibacterial activity of each compound of interest was measured in accordance with the standard method designated by Japan Society of Chemotherapy. The results are shown in Tables 1 to 3 as minimum inhibitory concentration (MIC, µg/ml).

Assay [2] has as its system Str. pyogenes, G-36. To be noted: Streptococcus pyogenes. The procedure: as §1
The test system of assay [3] is Str. faecalis, ATCC-19433. To be noted: Enterococcus faecalis, ATCC19433, strain Str. faecalis, read-out: minimum inhibitory concentration (MIC). The procedure:
as §1

Assay [4] deals with S. flexneli, 2A 5503. To be noted: strain S. flexneli, read-out: minimum inhibitory concentration (MIC). The method, then:
as §1

In assay [5] the test system is S. aureus, 209P. To be noted: Staphylococcus aureus, strain S. aureus, read-out: minimum inhibitory concentration (MIC). The procedure: as §1
For assay [6], the system named is Ser. marcescens, 10100. To be noted: Serratia marcescens, strain Ser. marcescens, read-out: minimum inhibitory concentration (MIC). The procedure:
as §1

For assay [7], the system named is Ps. maltophilia, IID-1275. To be noted: Stenotrophomonas maltophilia, IID1275, strain Ps. maltophilia, read-out: minimum inhibitory concentration (MIC). The procedure: as §1
The subject of assay [8] is Ps. aeruginosa, 32121. To be noted: Pseudomonas aeruginosa, strain Ps. aeruginosa, read-out: minimum inhibitory concentration (MIC). The procedure: as §1
Assay [9] relates to E. coli, NIHJ. To be noted: Escherichia coli, read-out: minimum inhibitory concentration (MIC). The procedure:
as §1

The test system of assay [10] is Pr. vulgaris, 08601. The procedure:
as §1

The test system of assay [11] is S. aureus, 870307. To be noted: Staphylococcus aureus, strain S. aureus, read-out: minimum inhibitory concentration (MIC). The procedure:
as §1

The test system of assay [12] is S. epidermidis, 56500. The procedure:
as §1

Assay [13] concerns Ps. aeruginosa, 32104. To be noted: Pseudomonas aeruginosa, strain Ps. aeruginosa, read-out: minimum inhibitory concentration (MIC). The method, then: as §1
The mark [14] stands for this setting: G36, strain Str. pyogenes, G-36, read-out: minimum inhibitory concentration (MIC).
Where [15] appears, read: Proteus vulgaris, strain Pr. vulgaris, 08601, read-out: minimum inhibitory concentration (MIC).
[16] abbreviates: Staphylococcus epidermidis, strain S. epidermidis, 56500, read-out: minimum inhibitory concentration (MIC).
[17] abbreviates: Staphylococcus epidermidis, 56500, read-out: minimum inhibitory concentration (MIC).

The structures appear in SMILES notation. Converted amounts (≈) assume the structure as drawn. Read-outs that look alike come from different tables or passages of the source.

With `Cc1c(N2C[C@H](C3(N)CC3)C(F)(F)C2)c(F)c(N)c2c(=O)c(C(=O)O)cn([C@@H]3C[C@@H]3F)c12` [compound 7], the MIC is 0.025 µg/mL (≈ 0.055 µM) in assay [1]; ≤ 0.003 µg/mL in [2] (setting [14]); 0.013 µg/mL (≈ 0.0286 µM) in assay [3]; ≤ 0.003 µg/mL in assay [4]; ≤ 0.003 µg/mL in assay [5]; 0.05 µg/mL (≈ 0.11 µM) in assay [6]. Further, the MIC in assay [7] is 0.05 µg/mL (≈ 0.11 µM); in [8] it was 0.05 µg/mL (≈ 0.11 µM); in assay [9] (strain E. coli, NIHJ), ≤ 0.003 µg/mL; in assay [10] (setting [15]), 0.05 µg/mL (≈ 0.11 µM); in [11] it was 0.013 µg/mL (≈ 0.0286 µM); in assay [12] (setting [16]) it was ≤ 0.003 µg/mL. Besides, the MIC in assay [13] was 0.1 µg/mL (≈ 0.22 µM).

With `C[C@H]1COc2c(N3C[C@H](C4(N)CC4)C(F)(F)C3)c(F)cc3c(=O)c(C(=O)O)cn1c23` [compound 8], the MIC in assay [1] amounted to 0.78 µg/mL (≈ 1.84 µM); in [2] (setting [14]), 0.1 µg/mL (≈ 0.236 µM); in [3] it was 0.2 µg/mL (≈ 0.472 µM); in assay [4] it was 0.05 µg/mL (≈ 0.118 µM); in [5], 0.025 µg/mL (≈ 0.059 µM); in [6], 0.39 µg/mL (≈ 0.921 µM). Also, the MIC in [7] was 0.39 µg/mL (≈ 0.921 µM); in assay [8] it was 0.39 µg/mL (≈ 0.921 µM); in [9] (strain E. coli, NIHJ), 0.025 µg/mL (≈ 0.059 µM); in assay [10] (setting [15]) it was 0.1 µg/mL (≈ 0.236 µM); in assay [11] it was 0.78 µg/mL (≈ 1.84 µM); in assay [12] (setting [16]), 0.05 µg/mL (≈ 0.118 µM). In addition, the MIC in assay [13] came to 1.56 µg/mL (≈ 3.68 µM).

Turning to `CO[C@H]1CN(c2c(F)c(N)c3c(=O)c(C(=O)O)cn([C@@H]4C[C@@H]4F)c3c2C)C[C@@H]1C1(N)CC1` [compound 4], the MIC in [1] is 0.2 µg/mL (≈ 0.446 µM); in assay [2] (setting [14]) it was 0.025 µg/mL (≈ 0.0557 µM); in assay [3], 0.1 µg/mL (≈ 0.223 µM); in assay [4] it was 0.013 µg/mL (≈ 0.029 µM); in assay [5] it was ≤ 0.003 µg/mL; in [6] it was 0.2 µg/mL (≈ 0.446 µM). Moreover, the MIC in assay [7] amounted to 0.2 µg/mL (≈ 0.446 µM); in assay [8], 0.39 µg/mL (≈ 0.87 µM); in [9], 0.013 µg/mL (≈ 0.029 µM); in assay [10] (setting [15]), 0.1 µg/mL (≈ 0.223 µM); in assay [11], 0.1 µg/mL (≈ 0.223 µM); in [12] (setting [17]), 0.013 µg/mL (≈ 0.029 µM). Also, the MIC in assay [13] came to 0.78 µg/mL (≈ 1.74 µM).

With `COc1c(N2C[C@@H](F)[C@@H](C3(N)CC3)C2)c(F)cc2c(=O)c(C(=O)O)cn([C@@H]3C[C@@H]3F)c12` [compound 12], the MIC in assay [1] is 0.05 µg/mL (≈ 0.114 µM); in assay [2] (setting [14]), 0.006 µg/mL (≈ 0.0137 µM); in assay [3] it was 0.025 µg/mL (≈ 0.0572 µM); in [4] it was 0.013 µg/mL (≈ 0.0297 µM); in assay [5], ≤ 0.003 µg/mL; in assay [6], 0.1 µg/mL (≈ 0.229 µM). In addition, the MIC was 0.2 µg/mL (≈ 0.457 µM) in assay [7]; 0.1 µg/mL (≈ 0.229 µM) in assay [8]; ≤ 0.003 µg/mL in assay [9] (strain E. coli, NIHJ); 0.013 µg/mL (≈ 0.0297 µM) in [10] (Proteus vulgaris, 08601, read-out: minimum inhibitory concentration (MIC)); 0.025 µg/mL (≈ 0.0572 µM) in assay [11]; 0.013 µg/mL (≈ 0.0297 µM) in [12] (setting [17]). In assay [13], the MIC worked out at 0.39 µg/mL (≈ 0.892 µM).

Turning to `Cc1c(N2C[C@H](F)[C@@H](C3(N)CC3)C2)c(F)c(N)c2c(=O)c(C(=O)O)cn([C@@H]3C[C@@H]3F)c12` [compound 5], the MIC in assay [1] was 0.025 µg/mL (≈ 0.0573 µM); in assay [2] (setting [14]), ≤ 0.003 µg/mL; in assay [3] it was 0.013 µg/mL (≈ 0.0298 µM); in [4], ≤ 0.003 µg/mL; in [5], ≤ 0.003 µg/mL; in [6] it was 0.05 µg/mL (≈ 0.115 µM). Further, the MIC in assay [7] was 0.05 µg/mL (≈ 0.115 µM); in [8], 0.05 µg/mL (≈ 0.115 µM); in assay [9] (strain E. coli, NIHJ), ≤ 0.003 µg/mL; in assay [10] (setting [15]), 0.013 µg/mL (≈ 0.0298 µM); in assay [11] it was 0.006 µg/mL (≈ 0.0137 µM); in assay [13] it was 0.1 µg/mL (≈ 0.229 µM).

On to `C[C@H]1COc2c(N3C[C@H](F)[C@@H](C4(N)CC4)C3)c(F)cc3c(=O)c(C(=O)O)cn1c23` [compound 6], for which the MIC in assay [1] is 0.2 µg/mL (≈ 0.493 µM); in assay [2] (G36, read-out: minimum inhibitory concentration (MIC)) it was 0.025 µg/mL (≈ 0.0617 µM); in [3], 0.1 µg/mL (≈ 0.247 µM); in [4], 0.025 µg/mL (≈ 0.0617 µM); in assay [5], 0.006 µg/mL (≈ 0.0148 µM); in assay [6], 0.1 µg/mL (≈ 0.247 µM). Moreover, the MIC worked out at 0.39 µg/mL (≈ 0.962 µM) in assay [7]; 0.2 µg/mL (≈ 0.493 µM) in assay [8]; 0.013 µg/mL (≈ 0.0321 µM) in assay [9] (strain E. coli, NIHJ); 0.05 µg/mL (≈ 0.123 µM) in assay [10] (setting [15]); 0.39 µg/mL (≈ 0.962 µM) in assay [11]; 0.025 µg/mL (≈ 0.0617 µM) in assay [12] (setting [17]). Moreover, in assay [13], the MIC stood at 0.78 µg/mL (≈ 1.92 µM).
